Source: the METLIN SMRT retention time set (Domingo-Almenara et al. 2019)

Experiment: gradient 5% acetonitrile 3 min, to 50% in 2 min, to 85% in 15 min, held 3 min, 100 µL/min
Conditions: column: Zorbax Extend-C18 2.1 x 50 mm; eluents: water / acetonitrile, 0.1% formic acid
How it was run: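 The mobile phases were water and acetonitrile, each with 0.1% formic acid, pumped at 100 μL/min through a Zorbax Extend-C18 column (2.1 × 50 mm, 1.8 μm). Pure standards were injected as mixtures of ~100 molecules and detected by a quadrupole time-of-flight mass spectrometer in positive and negative ionization mode. Retention time came from computationally picked adduct peaks, each inspected by hand.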

Structure (SMILES) | RP-LC retention time
CC(C)CNC(=O)C1CCCN(c2nc3ccsc3c(=O)n2Cc2ccc(F)cc2)C1 (centres undefined) | 912 s
O=C(CC1CCN(C(=O)Nc2ccc(Br)cc2F)CC1)N1CCCCC1 | 835 s
O=S(=O)(c1cccnc1)N1CCc2[nH]nc(-c3ccc(F)cc3)c2C1 | 740 s
Cc1ccn2cc(C(=O)NCc3ccc(N(C)C)cc3)nc2c1 | 543 s
CC(C)n1nnc2cc(S(=O)(=O)N3CCCC(C(=O)N4CCC(C(N)=O)CC4)C3)ccc21 (centres undefined) | 652 s
C#C[C@]1(O)CCC2C3CCC4=CC(=O)CCC4C3C(=C)CC21CC (some centres undefined) | 991 s
C[C@H]1CN(C(=O)c2cc(F)cc(F)c2)C[C@@H]1c1nc(-c2ccncc2)no1 | 781 s
CC(=O)N1CCc2[nH]c3ccc(C(=O)NCc4ccc(N5CCCC5)cc4)cc3c2C1 | 1120 s
O=c1c2sccc2n(Cc2nc(-c3ccc(F)cc3)no2)c(=O)n1-c1ccc(Cl)cc1 | 1070 s
COc1cc(OC)cc(-c2nc(-c3ccc(-n4ccnc4)nc3)no2)c1 | 769 s
O=C(c1ccc(F)c(F)c1)N1CCN(c2nc(CN3CCOCC3)cs2)CC1 | 617 s
Cc1ccc(NC(=O)CSCC(=O)N2CCC(C(N)=O)CC2)cc1 | 630 s
CSc1ccc(CNC(=O)Cn2cnc3nc4c(cc3c2=O)CC(C)CC4)cc1 (centres undefined) | 781 s
CN(Cc1nc(-c2ccc(N3CCCCC3)nc2)no1)C1CCCCC1 | 666 s
COC(=O)[C@H](CC1C=NC=N1)NCC12CC3CC(CC(C3)C1)C2 (some centres undefined) | 607 s
CCN(CC)Cc1nc(-c2ccc(N3CCSCC3)nc2)no1 | 632 s
Cc1c(-c2noc(-c3ccc4c(c3)OCO4)n2)nnn1-c1ccc(F)cc1 | 745 s
Cc1ccc(NC(=O)Cn2nc3c(Oc4ccc(Cl)cc4)nccn3c2=O)cc1 | 864 s
Cc1ccc(CSc2nccc3c2ccn3CC(=O)NCCN2CCN(C)CC2)cc1 | 589 s

Structure (SMILES) | RP-LC retention time
O=C(NCCc1cccs1)C1CCN(c2cc(N3CCCCC3)ncn2)CC1 | 672 s
O=C(NCc1ccc(F)cc1)C(=O)NCC1OCCN1C(=O)c1cccs1 (centres undefined) | 702 s
Cc1sc(-c2cc(C(F)(F)F)[nH]n2)cc1S(=O)(=O)NC1CCCC1 | 1000 s
CCN1CCC2(CC1)N=C(c1ccc(F)cc1)CC(c1cc(Cl)ccc1O)N2 (centres undefined) | 635 s
O=C(NCc1ccc2c(c1)OCO2)C1CCCN(c2nnc3ccc(Cl)cn23)C1 (centres undefined) | 735 s
CSc1nnc(-c2nn(C)c3c2CN(C(=O)c2c(F)cccc2F)CC3)n1C | 695 s
CCSc1nnc(NC(=O)CSC2=NN3CCCC(=O)N=C3S2)s1 | 683 s
Cc1ccsc1C(=O)Nc1cccc(-c2nnc3n2CCCC3)c1 | 640 s
Cc1sc(-c2nc(C(C)C)cs2)cc1S(=O)(=O)Nc1cc(F)ccc1F | 1220 s
O=C(CCC1CCN(S(=O)(=O)c2cccc(F)c2)CC1)NC1CC1 | 781 s
O=C(C1CCN(S(=O)(=O)c2ccc3nc(-c4ccccc4)[nH]c3c2)CC1)N1CCCC1 | 699 s
O=C(c1cc2c(s1)CCC(C(=O)N1CCN(c3ccccn3)CC1)C2)N1CCOCC1 (centres undefined) | 582 s
Cc1cc2c(=O)n(CC(=O)Nc3ccc(Cl)cc3C)ccc2s1 | 833 s
O=C(NCCN1CCN(c2ccc(F)cc2)CC1)C(=O)NCc1ccc(F)cc1 | 588 s
Cc1cccc(N2CCN(c3cc(C(=O)O)c4cc(NC(=O)C5CCC5)ccc4n3)CC2)c1C | 777 s
Cc1nn(-c2ccccc2)c(C)c1S(=O)(=O)N1CCC(C(=O)Nc2ccccc2Cl)CC1 | 995 s
CCC1CCCCN1C(=O)Cc1c(C)nn(-c2nc(-c3ccc(C)cc3)cs2)c1C (centres undefined) | 1380 s
COc1ccc(N2CC(c3nc(-c4ccc5c(c4)oc(=O)n5C(C)C)no3)CC2=O)cc1 (centres undefined) | 915 s
CCN(Cc1ccccc1)C(=O)CN1C(=O)C2CCCCN2c2ccc(S(=O)(=O)N(C)C)cc21 (centres undefined) | 647 s

Continued, values first:

RP-LC retention time | Structure (SMILES)
1160 s | CCCC(=O)Nc1nc(-c2ccccc2)c(-c2ccccc2)s1
704 s | COCC(C)NC(=O)C(=O)c1cn(CC(=O)N2CCOCC2)c2ccccc12 (centres undefined)
855 s | Cc1noc(C)c1C(=O)N1CCCC1c1ccc(Cl)cc1 (centres undefined)
596 s | COc1cc(NC(=O)Nc2cccc(-c3nccnc3N3CCCC3)c2)cc(OC)c1
912 s | Cc1ccc(NS(=O)(=O)c2n[nH]c(C)c2C(=O)NCCc2cccs2)cc1
1030 s | Cc1nc2cc(-c3noc(Cc4ccccc4Cl)n3)ccc2o1
649 s | CCC(=O)N1CCC2(CC1)NC(=O)c1ccccc1O2
638 s | CN(C)c1cc(C(N)=O)c2cccc(Cl)c2n1
597 s | CCOC(=O)c1c(C)oc2nc(C)nc(NC3CCN(Cc4ccccc4)CC3)c12
1120 s | CCCn1c(=O)c(C)nc2cc(-c3noc(-c4cccs4)n3)ccc21
765 s | CCc1nc2c(=O)n(CC(=O)N3CCN(c4ccccc4)CC3)nc(C)c2s1
736 s | CCc1noc(NC(C)=O)c1-c1ccc(C)c(S(=O)(=O)Nc2ccc(C(=O)OC)cc2)c1
615 s | O=C(Cc1ccc(S(=O)(=O)N2CCN(c3ccccn3)CC2)s1)N1CCCC1
1030 s | CCOc1ccccc1-c1noc(CN2C(=O)COc3ccc(C)cc32)n1
824 s | COCCCNC(=O)C1CCCN(c2ncc(-c3ccc(F)cc3)cn2)C1 (centres undefined)
1020 s | Cc1ccccc1-c1noc(C2CCCN2C(=O)Nc2ccccc2F)n1 (centres undefined)
850 s | CCOc1ccc(CC(=O)N2CCCn3nc(-c4cccs4)cc3C2)cc1
844 s | O=C(Cc1cccc(F)c1)N1CCOc2ccccc2C1
669 s | COc1ccc(-n2nc(C)c3sc(N(C)CC(=O)N4CCN(c5ccccn5)CC4)nc32)cc1
955 s | Cc1[nH]c(C(=O)N2CCCC(C(=O)NC(C)CCc3ccccc3)C2)c(C)c1C(=O)OC(C)C (centres undefined)
735 s | CN1C(=O)c2cccnc2Sc2cc(NC(=O)C(C)(C)C)ccc21
1110 s | CCOc1ccc(-c2nc(CN3C(=O)C(O)(c4ccccc4)c4ccccc43)c(C)o2)cc1 (centres undefined)
1160 s | O=C(Nc1ccccc1F)C1CCCN(S(=O)(=O)c2cc(-c3noc(C4CCC4)n3)cs2)C1 (centres undefined)
640 s | COc1ccc(-c2nnc(CC(=O)NC3CC3)o2)cc1
1020 s | COc1ccc(-c2nc(-c3cccc(-c4ccnn4C)c3)no2)cc1OC
1160 s | CCCCOc1ccc(C(=O)NC2(c3nc(CC)no3)CCCCC2)cc1

RP-LC retention time | Structure (SMILES)
936 s | Cc1c(Cl)cccc1NC(=O)C(=O)NCC(O)c1ccc(C(F)(F)F)cc1 (centres undefined)
690 s | CCNC(=O)NC1CCN(c2ccc(C)c(C)c2)C1=O (centres undefined)
814 s | CCCN(CCC)c1nc(-c2ccccc2F)nc2ccccc12
1010 s | CCCCC(=O)Nc1ccc2nc(N3CCN(c4ccccc4Cl)CC3)cc(C(=O)O)c2c1
942 s | Cc1ccccc1-c1noc(N2CCC(C(=O)NCc3ccc4c(c3)OCO4)CC2)n1
947 s | COC(=O)c1ccc2nc(NC(=O)c3cc(C)oc3C)sc2c1
596 s | CCNC(=O)NC1CCN(c2ccccc2)C1=O (centres undefined)
979 s | O=C(Cc1ccccc1F)N1CCCn2nc(-c3ccc(Cl)cc3)cc2C1
1260 s | CCOC(=O)c1ccc(NC(=O)c2cc3sc(Cl)cc3n2CC)cc1
837 s | CCc1nc2cc(N3CCC(C(=O)NC(C)c4ccccc4)CC3)cnc2nc1CC (centres undefined)
719 s | CCc1cc(=O)n(CC(=O)Nc2ccc(OC)c(F)c2)c(N2CCOCC2)n1
814 s | Cc1ccn2c(Nc3ccccc3C)c(-c3cc(Br)ccc3F)nc2c1
788 s | COc1ccc(S(=O)(=O)NC2CCN(C(=O)CCc3c[nH]c4ccccc34)CC2)cc1
665 s | COc1ccc(N2CC(c3nc(-c4cccnc4)no3)CC2=O)cc1OC (centres undefined)
719 s | CCc1noc(NC(C)=O)c1-c1ccc(C)c(S(=O)(=O)Nc2ccccc2)c1
575 s | O=C(NCCc1ccccn1)C1CCc2nc(N3CCCCC3)ncc2C1 (centres undefined)
1190 s | CCc1cc(=O)n(CC(=O)Nc2ccc(Cl)cc2)c(-c2ccccc2)n1
1060 s | COc1ccc(CC(=O)N2CCc3cc(-c4csc(C)n4)ccc32)cc1
809 s | Cn1c(=O)c(N2CCC(NC(=O)Nc3ccc4c(c3)OCO4)CC2)nc2ccccc21
970 s | COC(=O)c1sccc1NC(=O)N1CCCn2nc(-c3ccc(OC)cc3)cc2C1
686 s | COc1ccccc1-c1nocc1CCC(=O)O
556 s | CCOc1ccc(CN2C[C@@H](CO)[C@H](c3ccncc3)C2)cc1OCC
837 s | CC(=O)Nc1ccc(-c2noc(C3CCN(C(=O)C4(c5ccccc5)CC4)CC3)n2)cc1
684 s | COc1ccc(-c2cn3c(CC(=O)Nc4ccc5c(c4)OCCO5)csc3n2)cc1OC
591 s | CCOCCCNC(=O)c1c2c(cn(-c3ccccc3)c1=O)C(=O)CC(C)(C)C2
